# Measured values published in patent publication US10399931B2, “Octahydroanthracene compound, preparation method and application thereof” (SHANDONG XINHUA PHARMACEUTICAL CO., LTD., priority 2016, dated 2019).
# Key:
# APP/PS1 transgenic mice = test: Morris water maze test (oriented navigation and probe test); assay type: in vivo; settings: for Number of times traversing the safe platform vs model group / Percentage of the swimming distance in the target quadrant vs model group / Swimming time in the target quadrant vs model group: probe test
# Description: The drugs were administered three days after the adaptive feeding. Peanut oil was used as the solvent. The drug was intragastric administered once a day for 15 days. On the 6th to 9th day after the administration, the new object identification test was performed. On the 10th day, the Y-maze test was performed. On the 11th to 15th day, the Morris water maze test was performed to determine the improvement of learning and memory. The administration of the drugs was continued during the behavioral experiment until the animals were sacrificed (16th day).
# The experimental device includes a black circular pool with a diameter of 100 cm and a height of 40 cm, and a white platform (safe platform) having a diameter of about 10 cm. The location of the safe platform could be moved. Morris Water Maze Video Detection and Analysis System was provided by the Institute of Materia Medica, China Academy of Medical Sciences. One day before the experiment, water was injected into the black circular pool (water temperature 22±1° C.), and white pigment was added to mix uniformly. The water surface was usually about 1 cm higher than the top of the safe platform. The pool was divided into four quadrants I, II, III and IV, and the safe platform was usually placed in the middle of the quadrant IV. The experiment was divided into two parts: (1) Oriented navigation: the animal grouping was input into a computer software in advance. The position of the safe platform was kept unchanged during the experiment. During the test, the experimental animal facing the pool wall was placed in the water from different inlets, and the computer simultaneously collected data and recorded the time to find the safe platform (escape latency). Data collection automatically stopped when the animal stayed on the safe platform for 10 s. The data acquisition time of the mouse was 60 s. If the animal could not find the safe platform within the specified time, the escape latency was recorded as 60 s. At the same time, the operator induced the animal to reach the safe platform and stay for 10 s. The animal was trained twice a day for 4 consecutive days. (2) Probe test: after the oriented navigation test is completed, the safe platform is removed and the animal was placed in the pool free to explore for 60 s. The camera system automatically recorded the time and distance of the experimental animal swimming in the quadrant of the safe platform within the specified time and the number of times passing through the location of the safe platform.
# APP/PS1 mice = test: Transmission electron microscopy of hippocampal CA1 neurons and synapses; assay type: in vivo
smiles,measurement,setting,value
"CC1(C)CCC(C)(C)c2c1cc1c(c2NC(=O)c2ccc(NC(=O)NCCN)cc2)C(C)(C)CCC1(C)C [OAB-14, 1-(2-amino) ethyl-3-{4-[(1,1,4,4,5,5,8,8-octamethyl-1,2,3,4,5,6,7,8-octahydro-9-anthryl)carbamoyl]phenyl} urea]",Total swimming distance vs model group,"APP/PS1 transgenic mice; 100 mg/kg, fourth day of training",significantly reduced
same,Escape latency vs model group,"APP/PS1 transgenic mice; 100 mg/kg, third and fourth days of training",significantly reduced
same,Escape latency vs model group,"APP/PS1 transgenic mice; 200 mg/kg, from the second day of training",significant decrease
same,Total swimming distance vs model group,"APP/PS1 transgenic mice; 200 mg/kg, from the third day of training",significant decrease
same,Number of times traversing the safe platform vs model group,APP/PS1 transgenic mice; 100 mg/kg,significantly increased
same,Percentage of the swimming distance in the target quadrant vs model group,APP/PS1 transgenic mice; 100 mg/kg,significantly increased
same,Swimming time in the target quadrant vs model group,APP/PS1 transgenic mice; 100 mg/kg,significantly increased
same,Number of times traversing the safe platform vs model group,APP/PS1 transgenic mice; 200 mg/kg,significantly increased
same,Percentage of the swimming distance in the target quadrant vs model group,APP/PS1 transgenic mice; 200 mg/kg,significantly increased
same,Swimming time in the target quadrant vs model group,APP/PS1 transgenic mice; 200 mg/kg,significantly increased
same,Spatial learning and memory disorders of the APP/PS1 mice,"APP/PS1 transgenic mice; water maze oriented navigation, overall",significantly improved
same,Synaptic ultrastructure of the hippocampus (TEM),APP/PS1 mice; 100 mg/kg group,significantly improved
same,Synaptic ultrastructure of the hippocampus (TEM),APP/PS1 mice; 200 mg/kg group,significantly improved
same,Ultrastructure of hippocampal CA1 neurons (TEM),"APP/PS1 mice; dose-dependent, especially 200 mg/kg group",significantly improved
